Measured values from the NIST ThermoML archive (doi:10.1021/je800999s).
Numbers after ± are expanded uncertainties.

Assay: molar heat capacity at constant pressure
Conditions: 101 kPa, Liquid, Large sample (1 g) DSC

molar heat capacity at constant pressure (303.15 K) [J/K/mol] | molar heat capacity at constant pressure (308.15 K) [J/K/mol] | molar heat capacity at constant pressure (313.15 K) [J/K/mol] | molar heat capacity at constant pressure (318.15 K) [J/K/mol] | molar heat capacity at constant pressure (323.15 K) [J/K/mol] | molar heat capacity at constant pressure (328.15 K) [J/K/mol] | molar heat capacity at constant pressure (333.15 K) [J/K/mol] | molar heat capacity at constant pressure (338.15 K) [J/K/mol] | molar heat capacity at constant pressure (343.15 K) [J/K/mol] | molar heat capacity at constant pressure (348.15 K) [J/K/mol] | molar heat capacity at constant pressure (353.15 K) [J/K/mol] | Compound
359 ± 15 | 364 ± 15 | 366 ± 16 | 368 ± 16 | 370 ± 16 | 371 ± 16 | 373 ± 16 | 375 ± 16 | 379 ± 16 | 381 ± 16 | 382 ± 16 | COCCOCCOCCOC [2,5,8,11-tetraoxadodecane]
185 ± 8 | 186 ± 8 | 188 ± 8 | 189 ± 8 | 191 ± 8 | 193 ± 8 | 195 ± 8 | 197 ± 8 | 200 ± 9 | 201 ± 9 | 202 ± 9 | O=CN1CCOCC1 [N-formylmorpholine]
166 ± 7 | 167 ± 7 | 168 ± 7 | 169 ± 7 | 170 ± 7 | 172 ± 7 | 174 ± 7 | 175 ± 7 | 176 ± 7 | 177 ± 8 | 178 ± 8 | CN1CCCC1=O [N-methylpyrrolidone]
182 ± 8 | 184 ± 8 | 185 ± 8 | 186 ± 8 | 188 ± 8 | 189 ± 8 | 191 ± 8 | 193 ± 8 | 194 ± 8 | 197 ± 8 | 199 ± 8 | O=S1(=O)CCCC1 [sulfolane]
